# Test results from patent publication US20030152557A1, “Methods for inhibiting histone deacetylase-4” (priority 2001, published 2003).
# d = 2'-deoxy (DNA); m = 2'-O-methyl
# Legend:
# [1] = test system: T24 human bladder cancer cells; assay: inhibition of HDAC activity in whole cells (acetylated histone H-4 Western); assay type: cell-based; settings: acetylated histone H-4 in T24 cells, 16 hours
# Method: T24 human bladder cancer cells (ATCC, Manassas, Va.) growing in culture were incubated with test compounds for 16 hours. Histones were extracted from the cells by standard procedures (see e.g. Yoshida et al., supra) after the culture period. Twenty μg total core histone protein was loaded onto SDS/PAGE and transferred to nitrocellulose membranes, which were then reacted with polyclonal antibody specific for acetylated histone H-4 (Upstate Biotech Inc., Lake Placid, […].). Horse Radish Peroxidase conjugated secondary antibody was used at a dilution of 1:5000 to detect primary antibody binding. The secondary antibody binding was visualized by use of the Enhanced chemiluminescence (ECL) detection kit (Amersham-Pharmacia Biotech., Inc., Piscataway, N.J.). After exposure to film, acetylated H-4 signal was quantitated by densitometry.
# [2] = test system: A549; assay: apoptosis, Cell Death Detection ELISA, A549; assay type: cell-based, human; settings: 48 hour treatment
# Method: (§1) Briefly, human A549 and/or T24 human bladder carcinoma cells were seeded in 10 cm tissue culture dishes one day prior to oligonucleotide treatment. The cell lines were obtained from the American Type Culture Collection (ATCC) (Manassas, Va.) and were grown under the recommended culture conditions. Before the addition of the oligonucleotides, cells were washed with PBS (phosphate buffered saline). Next, lipofectin transfection reagent (GIBCO BRL Mississauga, Ontario, CA), at a concentration of 6.25 μg/ml, was added to serum free OPTIMEM medium (GIBCO BRL, Rockville, Md.), which was then added to the cells. The oligonucleotides to be screened were then added directly to the cells (i.e., one oligonucleotide per plate of cells). Mismatched oligonucleotides were used as controls. The same concentration of oligonucleotide (e.g., 50 nM) was used per plate of cells for each oligonucleotide tested.
# (§2) In order to determine the effect of HDAC OSDNs on cell growth and cell death through apoptosis, A549 or T24 cells, MDAmb231 cells, and HMEC cells (ATCC, Manassas, Va.) were treated with HDAC OSDNs as previously described.
# (§3) For the apoptosis study, cells were analyzed using the Cell Death Detection ELISA^Plus kit (Roche Diagnostic GmBH, Mannheim, Germany) according to the manufacturer's directions. Typically, 10,000 cells were plated in 96-well tissue culture dishes for 2 hours before harvest and lysis. Each sample was analyzed in duplicate. ELISA reading was done using a MR700 plate reader (DYNEX Technology, Ashford, Middlesex, England) at 410 nm. The reference was set at 490 nm.
# [3] = test system: human HDAC-3 protein; assay: Western blot of HDAC-3 protein expression; assay type: cell-based; settings: A549 cells, 50 nM, 48 hours
# Method: (§4) OSDN treatment conditions were as previously described.
# (§5) Cells were lysed in buffer containing 1% Triton X-100, 0.5% sodium deoxycholate, 5 mM EDTA, 25 mM Tris-HCl, pH 7.5, plus protease inhibitors. Total protein was quantified by the protein assay reagent from Bio-Rad (Hercules, Calif.). 100 ug of total protein was analyzed by SDS-PAGE. Next, total protein was transferred onto a PVDF membrane and probed with various HDAC-specific primary antibodies. Rabbit anti-HDAC-1 (H-51), anti-HDAC-2 (H-54) antibodies (Santa Cruz Biotechnologies, Santa Cruz, Calif.) were used at 1:500 dilution. Rabbit anti-HDAC-3 antibody (Sigma, St. Louis, Mo.) was used at a dilution of 1:1000. Anti-HDAC-4 antibody was prepared as previously described (Wang, S. H. et al., (1999) Mol. Cell. Biol. 19:7816-27), and was used at a dilution of 1:1000. Anti-HDAC-6 antibody was raised by immunizing rabbits with a GST fusion protein containing a fragment of HDAC-6 protein (amino acid #990 to #1216, GenBank Accession No. AAD29048). Rabbit antiserum was tested and found only to react specifically to the human HDAC-6 isoform. HDAC-6 antiserum was used at 1:500 dilution in Western blots to detect HDAC-6 in total cell lysates. Horse Radish Peroxidase conjugated secondary antibody was used at a dilution of 1:5000 to detect primary antibody binding. […]
# [4] = test system: T24; assay: apoptosis, Cell Death Detection ELISA, T24; assay type: cell-based, human; settings: 48 hour treatment
# Method: as §1, §2, §3
# [5] = test system: human HDAC-3 mRNA; assay: Northern blot analysis of HDAC-3 RNA expression; assay type: cell-based; settings: T24 cells, 100 nM, 24 hours
# Method: Twenty-one phosphorothioate ODNs containing sequences complementary to the 5′ or 3′ UTR of the human HDAC-3 gene (GenBank Accession No. AF039703) were screened as above. […] HDAC-3 MM oligo was created as a control; compared to the antisense oligo, it contains a a 6-base mismatch.
# as §1
# (§6) Cells were harvested, and total RNAs were analyzed by Northern blot analysis. Briefly, total RNA was extracted using RNeasy miniprep columns (QIAGEN). […]
# [6] = test system: human cancer cells; assay: cell growth analysis and apoptosis, cancer cells; assay type: cell-based; settings: various human cancer cells, 50 nM
# Method: as §2, §3
# Cells were harvested and cell numbers counted by trypan blue exclusion using a hemocytometer. Percentage of inhibition was calculated as (100-AS cell numbers/control cell numbers)%.
# [7] = test system: HMEC; assay: apoptosis, Cell Death Detection ELISA, HMEC; assay type: cell-based, human; settings: 48 hour treatment
# Method: as §1, §2, §3
# [8] = test system: MDAmb231; assay: apoptosis, Cell Death Detection ELISA, MDAmb231; assay type: cell-based, human; settings: 48 hour treatment
# Method: as §1, §2, §3
# [9] = test system: A549 cells; assay: RNase protection assay of p21, GADD45 and Bax mRNA, A549; settings: A549, TSA 250 ng/ml 16 hours vs lipofectin
# Method: As a control, A549 cells were treated by lipofectin with or without TSA (250 ng/ml) treatment for 16 hours. […] Total RNA from cells was prepared using “RNeasy miniprep kit” from QIAGEN following the manufacturer's manual. Labeled probes used in the protection assays were synthesized using “hStress-1 multiple-probe template sets” from Pharmingen (San Diego, Calif., U.S.A.) according to the manufacturer's instructions. Protection procedures were performed using “RPA II™ Ribonuclease Protection Assay Kit” from Ambion, (Austin, Tex.) following the manufacturer's instructions. Quantitation of the bands from autoradiograms was done by using Cyclone™ Phosphor System (Packard Instruments Co. Inc., Meriden, Conn.).
# [10] = test system: mammalian HDAC; settings: Yoshida et al. 1990; cited from earlier work
# [11] = test system: murine erythroleukemia cells; settings: Yoshida et al. 1987; cited from earlier work
# [12] = test system: human HDAC-2 protein; assay: Western blot of HDAC-2 protein expression; assay type: cell-based; settings: A549 cells, 50 nM, 48 hours
# Method: as §4, §5
# [13] = test system: human HDAC-2 RNA; assay: Northern blot analysis of HDAC-2 RNA expression; assay type: cell-based; settings: T24 cells, 100 nM, 24 hours
# Method: Twenty-four phosphorothioate ODNs containing sequences complementary to the 5′ or 3′ UTR of the human HDAC-2 gene (GenBank Accession No. U31814) were screened as above. […] HDAC-2 MM was created as a control; compared to the antisense oligo, it contains a 7-base mismatch.
# as §1, §6
# [14] = test system: Human A549 cells; assay: cDNA array analysis of gene transcription; assay type: cell-based; settings: 50 nM, two days, vs HDAC-4 mismatch oligo (MM2)
# Method: as §1
# [15] = test system: human HDAC-4 mRNA; assay: Northern blot analysis of HDAC-4 RNA expression; assay type: cell-based; settings: A549 cells, escalating doses, 24 hours
# Method: Human cancer A549 cells were treated with escalating doses of AS1, AS2 or MM2 oligos for 24 hours. Total RNAs were harvested for Northern analysis.
# Seventeen phosphorothioate ODNs containing sequences complementary to the 5′ or 3′ UTR of the human HDAC-4 gene (GenBank Accession No. AB006626) were screened as above. […] HDAC-4 MM oligo was created as a control; compared to the antisense oligo, it contains a 6-base mismatch.
# as §1
# Cells were harvested, and total RNAs were analyzed by Northern blot analysis. […]
# [16] = test system: human HDAC-4 protein; assay: Western blot of HDAC-4 protein expression; assay type: cell-based; settings: A549 cells, 48 hours
# Method: Human cancer A549 cells were treated with AS1, AS2 or MM2 oligos for 48 hours. Whole cell lysates were analyzed by Western blotting using antibodies specific against human HDAC-4.
# as §4
# as §5, with “lysates.” for “lysates. Horse Radish Peroxidase conjugated secondary antibody was used at a dilution of 1:5000 to detect primary antibody binding.”
# [17] = test system: human HDAC-6 RNA; assay: Northern blot analysis of HDAC-6 RNA expression; assay type: cell-based; settings: T24 cells, 100 nM, 24 hours
# Method: Thirteen phosphorothloate ODNs containing sequences complementary to the 5′ or 3′ untranslated regions of the human HDAC-6 gene (GenBank Accession No. AJ011972) were screened as above. […] HDAC-6 MM oligo was created as a control; compared to the antisense oligo, it contains a 7-base mismatch.
# as §1, §6
# [18] = test system: human HDAC-6 protein; assay: Western blot of HDAC-6 protein expression; assay type: cell-based; settings: A549 cells, 50 nM, 48 hours
# Method: as §4, §5
molecule,measurement,setting,value
Cc1ccc(S(=O)(=O)Nc2ccc(/C=C/C(=O)Nc3ccccc3N)cc2)cc1 [MG 37 63],4-Ac,[1],5 µM
"5′-CGCTTTCCTTGTCATTGACA-3′ (sugars from the 5' end m4 d12 m4, all phosphorothioate, methylation of C and T or U not given here) [HDAC-3, antisense oligo, human HDAC3 3′-UTR]",Apoptosis A549,[2]; HDAC isotype-specific OSDN,− (“−”: < = 2x fold over non-specific background)
same,expression of HDAC-3 protein,[3],specifically inhibits the expression of the respective HDAC isotype protein
same,Apoptosis T24,[4]; HDAC isotype-specific OSDN,− (“−”: < = 2x fold over non-specific background)
same,HDAC-3 RNA expression (antisense activity),[5],antisense activity to human HDAC-3
same,effect on cancer cell growth and apoptosis,[6],no effect on cancer cell growth or apoptosis
same,Apoptosis HMEC,[7]; HDAC isotype-specific OSDN,− (“−”: < = 2x fold over non-specific background)
same,Apoptosis MDAmb231,[8]; HDAC isotype-specific OSDN,− (“−”: < = 2x fold over non-specific background)
"CC(/C=C/C(=O)NO)=C\[C@@H](C)C(=O)c1ccc(N(C)C)cc1 [TSA, (R)-Trichostatin A, reference compound]",Apoptosis A549,[2]; 100 ng/ml,++ (“++”: 3-5X fold)
same,Apoptosis T24,[4]; 100 ng/ml,++ (“++”: 3-5X fold)
same,fold induction of transcription Bax,[9],0.8 fold
same,fold induction of transcription GADD45,[9],0.6 fold
same,fold induction of transcription p21,[9],2.8 fold
same,inhibition of mammalian HDAC,[10],potent inhibitor of mammalian HDAC
same,Apoptosis HMEC,[7]; 100 ng/ml,+ (“+”: 2-3X fold)
same,induction of differentiation,[11],potent inducer of differentiation in murine erythroleukemia cells
same,Apoptosis MDAmb231,[8]; 100 ng/ml,++ (“++”: 3-5X fold)
"5′-GCTGAGCTGTTCTGATTTGG-3′ (chemistry not given here) [HDAC-2, antisense oligo, human HDAC2 3′-UTR]",Apoptosis A549,[2]; HDAC isotype-specific OSDN,− (“−”: < = 2x fold over non-specific background)
same,expression of HDAC-2 protein,[12],specifically inhibits the expression of the respective HDAC isotype protein
same,Apoptosis T24,[4]; HDAC isotype-specific OSDN,− (“−”: < = 2x fold over non-specific background)
same,HDAC-2 RNA expression (antisense activity),[13],antisense activity to human HDAC-2
same,effect on cancer cell growth and apoptosis,[6],minimal effect on cancer cell growth inhibition
same,Apoptosis HMEC,[7]; HDAC isotype-specific OSDN,− (“−”: < = 2x fold over non-specific background)
same,Apoptosis MDAmb231,[8]; HDAC isotype-specific OSDN,− (“−”: < = 2x fold over non-specific background)
Nc1ccccc1NC(=O)CCCCCCC(=O)c1ccc(-c2ccccc2)cc1 [MG 36 50],4-Ac,[1],10 µM
CC(/C=C/C(=O)Nc1ccccc1N)=C\C(C)C(=O)c1ccc(N(C)C)cc1 (stereo not drawn) [MG 24 29],4-Ac,[1],1 µM
Nc1ccccc1NC(=O)CCCCCCC(=O)c1ccc(-c2ccccc2)nc1 [MG 38 69],4-Ac,[1],5 µM
"5-GCTGCCTGCCGTGCCCACCC-3′ (sugars from the 5' end m4 d12 m4, all phosphorothioate, methylation of C and T or U not given here) [HDAC-4 AS1, antisense oligo, human HDAC4 5′-UTR]",fold change CDK4,[14],−3 fold
same,fold change Egr-1,[14],3 fold
same,fold change GADD45,[14],3 fold
same,fold change GADD153,[14],6 fold
same,fold change IL-15,[14],4 fold
same,fold change IRF,[14],2 fold
same,fold change Notch-4,[14],−3 fold
same,fold change PLK,[14],−4 fold
same,fold change basic FGF,[14],2 fold
same,fold change cyclin A2,[14],−3 fold
same,fold change cyclin B1,[14],−3 fold
same,fold change p21,[14],4 fold
same,fold change topo II α,[14],−5 fold
same,HDAC-4 expression at RNA level,[15],inbibit HDAC-4 expression at RNA level in a dose-dependent manner
same,expression of HDAC-4 protein,[16],inbibit HDAC-4 expression at protein level
"5′-CAGGCTGGAATGAGCTACAG-3′ (sugars from the 5' end m4 d12 m4, all phosphorothioate, methylation of C not given here) [HDAC-6, antisense oligo, human HDAC6 3′-UTR]",Apoptosis A549,[2]; HDAC isotype-specific OSDN,− (“−”: < = 2x fold over non-specific background)
same,HDAC-6 RNA expression (antisense activity),[17],antisense activity to human HDAC-6
same,Apoptosis T24,[4]; HDAC isotype-specific OSDN,− (“−”: < = 2x fold over non-specific background)
same,expression of HDAC-6 protein,[18],specifically inhibits the expression of the respective HDAC isotype protein
same,effect on cancer cell growth and apoptosis,[6],no effect on cancer cell growth or apoptosis
same,Apoptosis HMEC,[7]; HDAC isotype-specific OSDN,− (“−”: < = 2x fold over non-specific background)
same,Apoptosis MDAmb231,[8]; HDAC isotype-specific OSDN,− (“−”: < = 2x fold over non-specific background)
"5′-TACAGTCCATGCAACCTCCA-3′ (sugars from the 5' end m4 d12 m4, all phosphorothioate, methylation of C and T or U not given here) [HDAC4 AS2, antisense oligo, human HDAC4 3′-UTR]",HDAC-4 expression at RNA level,[15],inbibit HDAC-4 expression at RNA level in a dose-dependent manner
same,expression of HDAC-4 protein,[16],inbibit HDAC-4 expression at protein level
